Measured values reported in publication PMC12595484, “Optimizing multifunctional fluorescent ligands for intracellular labeling” (Proceedings of the National Academy of Sciences of the …, 2025).
Read-outs that look alike come from different tables or passages of the source.

What was measured:
[1] = Determination of lactone–zwitterion equilibrium constant KL–Z; type: physicochemical; details: 1:1 (v/v) dioxane–water
Experimental: (§1) Detailed descriptions of the materials and methods are provided in the supporting information. Multifunctional rhodamine–HaloTag ligands (13HTL–16HTL and 18HTL–20HTL) were synthesized using palladium-catalyzed cross-coupling reactions to install 3-carboxyazetidine moieties onto rhodamine scaffolds, followed by amide bond formation with biotin–PEG2–NH2, (S)-JQ1–PEG2–NH2, or (R)-JQ1–PEG2–NH2. Spectroscopic properties (λabs, λem, ε, and Φf) were determined in 10 mM HEPES, pH 7.3. The lactone–zwitterion equilibrium constants (KL–Z) were measured in 1:1 (v/v) dioxane–water mixtures. Octanol–water distribution coefficients (logD7.4) were determined by miniaturized shake-flask partitioning experiments using PBS (pH 7.4) and 1-octanol. Cell culture experiments employed HEK293T, U2OS, and Neuro2a cells transfected with HaloTag fusion constructs and labeled with ligands (100 nM to 1 μM, 0.5 to 2 h at 37 °C), followed by fluorescence microscopy using confocal or lattice light-sheet microscopy. Affinity purification studies utilized streptavidin magnetic beads to capture biotin-labeled HaloTag conjugates, with analysis by SDS-PAGE and in-gel fluorescence detection. […]
Reported values for extinction coefficient (ε) are averages of at least two […]
Determination of KL−Z. The lactone−zwitterion equilibrium constant (KL−Z) was calculated as described previously2-4 using equation 1: […]
where εdw is the extinction coefficient of the dyes in a 1:1 (v/v) dioxane:water solvent mixture containing 0.01% (v/v) triethylamine; this dioxane−water mixture was chosen to give a large range of KL−Z values,3 and the triethylamine additive ensures the rhodamines are in the net neutral form.
The εmax is the maximal extinction coefficient, measured in 0.1% (v/v) trifluoroacetic acid in 2,2,2-trifluoroethanol (TFE) or ethanol. […]

[2] = Determination of logD7.4 (miniaturized shake flask, octanol–PBS); type: physicochemical
Experimental: as §1
Reported values are averages of at least two measurements.
Determination of logD7.4. The log of distribution coefficients at pH 7.4 was determined in octanol–phosphate-buffered saline (PBS) using a miniaturized shake flask setup described previously.6, 7 Briefly, 150 mL each of octanol and PBS pH 7.4 were stirred vigorously for 12–16 h. The layers were allowed to stand for at least 24 h for phase separation. The separated layers were collected and served as PBS saturated with octanol (PBS*) and octanol saturated with PBS (octanol*). Stock solutions (1 mM or 5 mM) of ligands were prepared in DMSO and diluted in PBS* to obtain 1 μM or 10 μM (3–5 mL) of the standard (std). This standard was used to prepare appropriate dilutions using octanol*, in triplicate, in 2-mL glass vials. The leftover standard was used to determine the standard concentration (Cstd). The vials were vortexed for 1 min and shaken horizontally at 700 rpm for 2 h. The vials were then shaken upright at 150 rpm for 2 h to allow the phases to separate. The octanol* layer was pipetted out, and the PBS* layer was used for further analyses. The concentrations of ligands in the standard and PBS* (CPBS*) were determined via fluorescence measurements of 200 μL of PBS* or std in 96-well plates on the Cytation 5 Multimode Plate Reader (BioTek). For Si-rhodamine containing ligands, 2–20 μL of […]
trifluoroacetic acid was added to each well of the 96-well plate prior to the fluorescence measurements. Reported values are averages of at least two measurements. The logD7.4 was obtained as described previously using equation 2: logD = log *’(" × r − 1. +)*+∗ / (2) […]
where Cstd is the standard concentration in PBS, CPBS* is the concentration in PBS after partitioning, r is the dilution factor of the standard solution, VPBS* is the volume of PBS used in the partitioning, and Voctanol* is the volume of octanol used in the partitioning.
Plasmid construction for mitochondria imaging and affinity purification. HaloTag, amplified from the pHTC HaloTag CMV-neo Vector (Promega; G7711) and monomeric-superfolder green fluorescent protein (msGFP; lab stock), was fused to the mitochondrial targeting signal from OMP25,8 interspacing flexible GS(GSS)4 linkers between each domain by PCR Splicing by Overlap Extension (SOE). This construct was subcloned into hSynapsin promoter bearing a copy of FUGW.9 FUGW was a gift from David Baltimore (Addgene plasmid # 14883; RRID:
Addgene_14883).10 This construct was designated as pF(UG) hSyn HaloTag-TEV-4×GS-msGFP- […]
HEK293T cell culture. HEK293T cells (ATCC) were passaged before 80% confluency by trypsinization (Corning; 25-053-CI) and trituration. The cell suspension was then plated on glass coverslips (Warner instruments; 64-0734, CS-18R17) coated with poly-D-lysine (Thermofisher; […]

[3] = 1-octanol/PBS, octanol–PBS pH 7.4, miniaturized shake flask, read-out: logD7.4

logD [2, 3] | SMILES | KL–Z [1] | logD ([2]; pH 7.4)
 | C[Si]1(C)C2=CC(=[N+]3CC(C(=O)NCCOCCOCCNC(=O)CCCC[C@@H]4SC[C@@H]5NC(=O)N[C@@H]54)C3)C=CC2=C(c2cc(C(=O)NCCOCCOCCCCCCCl)ccc2C(=O)[O-])c2ccc(N3CCC3)cc21 (stereo partly shown) [15HTL, biotin–JF646–HaloTag ligand] | 0.0086 | 3.06
0.07 | O=C(CCCCC1SCC2NC(=O)NC21)NCCOCCOCCNC(=O)C1C[N+](=c2ccc3c(-c4cc(C(=O)NCCOCCOCCCCCCCl)ccc4C(=O)[O-])c4ccc(N5CCC5)cc4oc-3c2)C1 (stereo not shown) [13HTL, biotin–JF549–HaloTag ligand] | 5.9 | 
2.63 | CC1(C)C2=CC(=[N+]3CC(C(=O)NCCOCCOCCNC(=O)CCCC[C@@H]4SC[C@@H]5NC(=O)N[C@@H]54)C3)C=CC2=C(c2cc(C(=O)NCCOCCOCCCCCCCl)ccc2C(=O)[O-])c2ccc(N3CCC3)cc21 (stereo partly shown) [14HTL, biotin–JF608–HaloTag ligand] | 0.17 | 
 | C[Si]1(C)c2cc(N3CC(F)C3)ccc2C2(OC(=O)c3ccc(C(=O)NCCOCCOCCCCCCCl)cc32)c2ccc(N3CC(F)C3)cc21 [6HTL, JF635–HaloTag ligand, reference compound] | 0.0048 | 3.82
 | C[Si]1(C)C2=CC(=[N+]3CC(F)(C(=O)NCCOCCOCCNC(=O)CCCC[C@@H]4SC[C@@H]5NC(=O)N[C@@H]54)C3)C=CC2=C(c2cc(C(=O)NCCOCCOCCCCCCCl)ccc2C(=O)[O-])c2ccc(N3CC(F)C3)cc21 (stereo partly shown) [16HTL, biotin–JF635–HaloTag ligand] | 0.0032 | 3.6
